As a reminder, the inhibition is the relative decrease from the control value, in per cent. As usually defined, the IC50 is the concentration needed to halve the response being measured.

The values below come from ChEMBL document CHEMBL2401664, “De novo tyrosinase inhibitor: 4-(6,7-dihydro-5H-indeno[5,6-d]thiazol-2-yl)benzene-1,3-diol (MHY1556)” (Bioorg Med Chem Lett, 2013).

Data set [1] in a line: Cytotoxicity against mouse B16F10 cells assessed as cell viability at 2 uM after 48 hrs by MTT assay. Particulars: read-out: Activity. The format is cell-based, B16-F10. For orientation: Tetrazolium dyes change colour on reduction, which living cells bring about.
Data set [2] has as its system B16-F10. The experiment in a line: Inhibition of alphaMSH-induced melanin production in mouse B16F10 cells at 2 uM after 48 hrs by melanin content assay (reference value: 163.78 %). It is filed as functional. The note with it: B16-F10, 48 h.
Data set [3] deals with T1, Tyrosinase (Mus musculus) (UniProt P11344).
T1 sequence (whole entry): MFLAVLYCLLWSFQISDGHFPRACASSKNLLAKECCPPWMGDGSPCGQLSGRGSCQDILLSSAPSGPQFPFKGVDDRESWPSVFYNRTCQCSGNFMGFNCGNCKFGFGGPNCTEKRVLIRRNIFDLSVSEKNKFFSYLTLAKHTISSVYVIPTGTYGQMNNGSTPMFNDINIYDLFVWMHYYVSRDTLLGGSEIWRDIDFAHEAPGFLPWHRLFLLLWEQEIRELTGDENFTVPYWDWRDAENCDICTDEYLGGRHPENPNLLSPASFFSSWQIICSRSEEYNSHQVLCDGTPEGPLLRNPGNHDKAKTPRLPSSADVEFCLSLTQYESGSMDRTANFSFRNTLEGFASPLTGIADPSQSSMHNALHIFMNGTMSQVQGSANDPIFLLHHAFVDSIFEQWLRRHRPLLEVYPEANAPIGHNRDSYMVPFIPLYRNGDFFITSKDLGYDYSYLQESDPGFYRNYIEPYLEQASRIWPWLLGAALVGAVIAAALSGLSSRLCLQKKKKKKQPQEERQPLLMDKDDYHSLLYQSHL
The data set can be described thus: Inhibition of tyrosinase in mouse B16F10 cells assessed as L-DOPA oxidation at 0.2 uM after 24 hrs by ELISA (reference value: […] %). Particulars: B16-F10. The format is cell-based. (ELISA stands for enzyme-linked immunosorbent assay.)

Data set [4] deals with T1, Tyrosinase (Mus musculus). The experiment in a line: Inhibition of tyrosinase in mouse B16F10 cells assessed as L-DOPA oxidation after 24 hrs by ELISA. It is filed as cell-based. Particulars: B16-F10.
A short description of data set [5]: Cytotoxicity against mouse B16F10 cells assessed as cell viability at 40 uM after 48 hrs by MTT assay. It is filed as cell-based, B16-F10. The note with it: read-out: Activity.
Data set [6] can be described thus: Cytotoxicity against mouse B16F10 cells assessed as cell viability at 5 uM after 48 hrs by MTT assay. It is filed as cell-based, B16-F10. Particulars: read-out: Activity.
A short description of data set [7]: Cytotoxicity against mouse B16F10 cells assessed as cell viability at 10 uM after 48 hrs by MTT assay. The format is cell-based, B16-F10. The note with it: read-out: Activity.
The subject of data set [8] is B16-F10. The data set can be described thus: Inhibition of alphaMSH-induced melanin production in mouse B16F10 cells at 0.2 uM after 48 hrs by melanin content assay (reference value: 163.78 %). The format is functional. The note with it: B16-F10, 48 h.
Data set [9] has as its target T2, Tyrosinase (Agaricus bisporus) (UniProt O42713).
T2 sequence (whole entry): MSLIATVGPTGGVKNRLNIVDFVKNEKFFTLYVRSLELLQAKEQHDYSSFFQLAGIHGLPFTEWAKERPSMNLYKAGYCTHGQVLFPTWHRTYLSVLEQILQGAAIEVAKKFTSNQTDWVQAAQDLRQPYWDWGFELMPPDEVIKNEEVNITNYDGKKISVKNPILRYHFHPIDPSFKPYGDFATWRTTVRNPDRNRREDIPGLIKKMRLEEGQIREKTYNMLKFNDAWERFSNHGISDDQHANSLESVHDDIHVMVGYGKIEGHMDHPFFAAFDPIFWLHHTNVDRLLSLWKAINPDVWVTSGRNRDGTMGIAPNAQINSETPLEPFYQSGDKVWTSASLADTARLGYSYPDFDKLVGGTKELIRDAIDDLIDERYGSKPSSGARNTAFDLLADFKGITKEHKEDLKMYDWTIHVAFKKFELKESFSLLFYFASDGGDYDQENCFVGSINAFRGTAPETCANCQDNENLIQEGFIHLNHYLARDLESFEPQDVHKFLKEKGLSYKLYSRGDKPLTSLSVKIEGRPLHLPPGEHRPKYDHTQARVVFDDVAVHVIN
The experiment in a line: Inhibition of mushroom tyrosinase using L-tyrosine as substrate assessed as amount of dopachrome produced at 0.8 uM after 30 mins by spectrophotometry.

Data set [10] concerns the target T2, Tyrosinase (Agaricus bisporus). The experiment in a line: Inhibition of mushroom tyrosinase using L-tyrosine as substrate assessed as amount of dopachrome produced at 0.1 uM after 30 mins by spectrophotometry.
The target is the same in data set [11]. The data set can be described thus: Inhibition of mushroom tyrosinase using L-tyrosine as substrate assessed as amount of dopachrome produced at 0.5 uM after 30 mins by spectrophotometry.
Data set [12] relates to B16-F10. The experiment in a line: Inhibition of alphaMSH-induced melanin production in mouse B16F10 cells after 48 hrs by melanin content assay. The format is functional, cell-based.
The subject of data set [13] is B16-F10. The data set can be described thus: Inhibition of alphaMSH-induced melanin production in mouse B16F10 cells at 0.1 uM after 48 hrs by melanin content assay (reference value: 163.78 %). The format is functional. The note with it: B16-F10, 48 h.
Data set [14] in a line: Cytotoxicity against mouse B16F10 cells assessed as cell viability at 20 uM after 48 hrs by MTT assay. It is filed as cell-based, B16-F10. The note with it: read-out: Activity.
Another data set concerns the target T3, Tyrosinase (Agaricus bisporus, UniProt O42713).
T3 sequence (O42713 whole entry): T2 sequence (whole entry)
The data set can be described thus: Inhibition of mushroom tyrosinase using L-tyrosine as substrate assessed as amount of dopachrome produced after 30 mins by spectrophotometry.

Data set [15] has as its target T1, Tyrosinase (Mus musculus). The experiment in a line: Inhibition of tyrosinase in mouse B16F10 cells assessed as L-DOPA oxidation at 0.1 uM after 24 hrs by ELISA (reference value: […] %). It is filed as cell-based. The note with it: B16-F10.
The target in data set [16] is T2, Tyrosinase (Agaricus bisporus). The experiment in a line: Inhibition of mushroom tyrosinase using L-tyrosine as substrate assessed as amount of dopachrome produced at 2 uM after 30 mins by spectrophotometry.
For data set [17] the target is unchanged. The experiment in a line: Inhibition of mushroom tyrosinase using L-tyrosine as substrate assessed as amount of dopachrome produced at 1 uM after 30 mins by spectrophotometry.
The test system of data set [18] is B16-F10. The experiment in a line: Inhibition of alphaMSH-induced melanin production in mouse B16F10 cells at 0.05 uM after 48 hrs by melanin content assay (reference value: 163.78 %). The format is functional. The note with it: B16-F10, 48 h.

Take `Oc1ccc(-c2nc3cc4c(cc3s2)CCC4)c(O)c1`: the viability at 48 h, 2 µM in [1] came out at 97.9%. Also, in the data set on B16-F10 [2], the inhibition at 2 µM was 88.8%. Also, the inhibition in data set [3] is 109%; in data set [4], “Dose-dependent effect”; in data set [9] it was 68.3%; in data set [10], 22.2%; in [11] it was 56.5%; with B16-F10 [12] it was “Dose-dependent effect”. In addition, the inhibition in [15] amounted to 133%; in data set [16] it was 83.5%; in [17], 73.6%. Also, in data set [5], the viability at 48 h, 40 µM was 88.4%. Also, in data set [6], the viability at 48 h, 5 µM came to 95%. In [7], the viability at 48 h, 10 µM stood at 98.1%. The inhibition at 0.2 µM in the data set on B16-F10 [8] was determined as 94.5%. In addition, the inhibition at 0.1 µM in the data set on B16-F10 [13] was 101%. Further, in [14], the viability at 48 h, 20 µM came to 95.6%. Further, at Tyrosinase, the IC50 worked out at 0.5 µM. In the data set with B16-F10 [18], the inhibition at 0.05 µM is 121%.
